Results on 2 molecules are retold here after patent US4959368A, “Therapeutic agent for neurological diseases” (Mitsui Petrochemical Industries Ltd., priority 1986, dated 1990).

SMILES strings stand for the structures.

For assay [1], the system named is human neuroblastoma cell line GOTO. Description: Activity on neuroblastoma cell line GOTO (cell number, number and length of neurites). The settings on record: for Number of cells (mean ± S.E.): control 12.30 ± 1.48. It is filed as cell-based. Summed up: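 GOTO cells were cultured 1–2 days at 37 °C, 5% CO2, then switched to serum-free RPMI/MEM (1:1) with compounds in PBS at various concentrations for 24 h. Living cells were counted by erythrosine exclusion (3–6 dishes); neurite number and length per cell were measured from photographs.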

In assay [2] the test system is mouse neuroblastoma cell line neuro-2a. Description: Activity on cell line neuro-2a (simple method). It is filed as cell-based. Summed up:
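Cells (2–6×10^4 per dish) grown 1–2 days at 37 °C, then switched to serum-free RPMI/MEM with compound in PBS for 24 h. Live cells counted by erythrosine exclusion; score is fraction of cells bearing neurites at least as long as the cell's long diameter, from photos.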

For assay [3], the system named is rats with lesioned nigral dopaminergic nerve cells. In words: Methamphetamine-induced rotational movement of rats with lesioned nigral dopaminergic nerve cells after transplantation of fetal cerebral cells. It is filed as in vivo, rat (female Wistar). The settings on record: number within one minute. As to the method: Rats and mice models of central nervous disorders were prepared, and the pharmacological effects of the compounds (I) of this invention were tested. Specifically, nigral dopamine cells of the rat brain were chemically destroyed by injecting a very small amount of 6-hydroxydopamineto induce motor imbalance. Two weeks later, dopamine cells of fetal brain were transplanted in the caudate nucleus into the lesioned side of the rat brain and an attempt was made to improve the motor trouble. Specifically, beginning on the day of transplantation, the compound (I) of the invention was intraperitoneally administered every day over 2 weeks, and the activity of the compounds (I) of the invention on the improvement of the motor imbalance and the growth of the transplanted cells was examined.
Promoting effect on the improvement of motor imbalance due to injury of the rat's brain cells by transplantation of fetal cerebral cells:
Nigral dopaminergic nerve cells at the left side of the brain of 4-week old female Wistar rats (body weight 100 g) were lesioned by injecting a very small quantity of 6-hydroxydopamine. […] Upon administration of methamphethamine (5 mg/kg, i.p.) to the rats having the lesioned nigral dopaminergic nerve cells, they began rotational movement toward the lesioned side.
After two weeks from the destruction by the administration of the drug, portions of the […] containing dopamine cells (i.e., substantia nigra and the tagmentum at the abdomen side) were cut from the brain of a fetal rat of 14 to 17 days of age, cut finely, and treated with trypsin. Then, the extracted tissues were incubated at 37° C. for 30 minutes, and the tissues were subjected to pipetting to form a suspension. Five microliters of the suspension was transplanted each into two sites of the caudate nucleus of the lesioned side (10 microliters in total, about 10^5 cells).
Each of the compounds (I) in a dose of 100 mg/kg (i.p.) was administered every day over two weeks from the day of transplantation. The rotational movements induced by administration of methamphetamine were examined 2 weeks and 1 week before, and 2 weeks and 4 weeks after, the transplantation and the administration of the drug. The number of rotational movements within one minute was counted at intervals of 10 minutes after the administration of methamphetamine, and the total number of rotational movements counted six times was averaged to find a mean number of the rotational movements.

[4] abbreviates: Table 1 Run No. 2, 1 μg/ml, control 2.06 ± 0.60.
The mark [5] stands for this setting: Table 1 Run No. 2, 1 μg/ml, control 55.00 ± 37.26.
Where [6] appears, read: Table 1 Run No. 2, 10 μg/ml, control 2.06 ± 0.60.
The mark [7] stands for this setting: Table 1 Run No. 2, 10 μg/ml, control 55.00 ± 37.26.
The mark [8] stands for this setting: Table 2 neuro-2a Run No. 2, 1 μg/ml, control 7.9.
[9] abbreviates: Table 2 neuro-2a Run No. 2, 10 μg/ml, control 7.9.
[10] abbreviates: Run No. 1, 1 week before transplantation, saline 12.23 ± 4.88.
The mark [11] stands for this setting: Run No. 1, 2 weeks after transplantation, 100 mg/kg i.p. daily over two weeks, saline 5.9 ± 2.75.
[12] abbreviates: Run No. 1, 2 weeks before transplantation, saline 10.9 ± 4.57.
[13] abbreviates: Run No. 1, 4 weeks after transplantation, 100 mg/kg i.p. daily over two weeks, saline 3 ± 3.23.
Setting [14] is: Run No. 2, 1 week before transplantation, saline 10 ± 5.3.
Setting [15] is: Run No. 2, 2 weeks after transplantation, 100 mg/kg i.p. daily over two weeks, saline 4.4 ± 5.9.
The mark [16] stands for this setting: Run No. 2, 2 weeks before transplantation, saline 12 ± 3.95.
Setting [17] is: Run No. 2, 4 weeks after transplantation, 100 mg/kg i.p. daily over two weeks, saline 1.5 ± 3.2.

As for `CN1Cc2nc(N3CCNCC3)ncc2C1=O` [Compound 604], the “Length of neurites (mean ± S.D.)” value is reported as 58.88 ± 22.72 μm/cell in assay [1] (Table 1, Run No. 6 by footnote, 1 μg/ml, control 42.48 ± 19.64, all *P <0.01); 76.30 ± 51.49 μm/cell in assay [1] (setting [5]); 72.06 ± 42.79 μm/cell in assay [1] (setting [7]). The “Number of neurites/cell (mean ± S.D.)” value in assay [1] (Table 1, second control group (Run No. 6 by footnote), 1 μg/ml, control 1.79 ± 0.80) is recorded as 2.23 ± 0.81 neurites/cell; in assay [1] (setting [4]) it was 2.29 ± 0.77 neurites/cell; in assay [1] (setting [6]) it was 2.27 ± 0.62 neurites/cell. Besides, the “Number of cells (mean ± S.E.)” value was 14.41 ± 2.98 × 10^4 /dish in assay [1] (Table 1 Run No. 2, 1 μg/ml) and 11.85 ± 1.36 × 10^4 /dish in assay [1] (Table 1 Run No. 2, 10 μg/ml). Further, the “Average of the proportions” value in assay [2] (setting [8]) came out at 19.86%; in assay [2] (setting [9]), 17.20%; in assay [2] (Table 2 neuro-2a Run No. 3, 0.01 μg/ml, control 2.0), 10.7%; in assay [2] (Table 2 neuro-2a Run No. 3, 0.1 μg/ml, control 2.0), 16.50%; in assay [2] (Table 2 neuro-2a Run No. 3, 1 μg/ml, control 2.0) it was 11.25%. Moreover, the “Number of rotational movements (mean ± S.D.)” value (shortened to “Number of rotational movements”) in assay [3] (setting [10]) amounted to 10.4 ± 5.75; in assay [3] (setting [11]), 2.99 ± 2.91; in assay [3] (setting [12]), 10.6 ± 3.82; in assay [3] (setting [13]), 3.37 ± 1.65; in assay [3] (setting [14]) it was 11.28 ± 4.0; in assay [3] (setting [15]), 1.03 ± 2.9. The “Number of rotational movements” value in assay [3] (setting [16]) was 13.33 ± 4.9; in assay [3] (setting [17]), 0.75 ± 2.8.

As for `CN1C(=O)Cc2cnc(N3CCNCC3)nc21` [Compound 408], the “Number of neurites/cell (mean ± S.D.)” value in assay [1] (setting [4]) came out at 2.11 ± 0.65 neurites/cell; in assay [1] (setting [6]), 2.17 ± 0.66 neurites/cell. Moreover, the “Number of cells (mean ± S.E.)” value in assay [1] (Table 1 Run No. 2, 1 μg/ml) is reported as 17.52 ± 2.57 × 10^4 /dish; in assay [1] (Table 1 Run No. 2, 10 μg/ml) it was 13.07 ± 0.80 × 10^4 /dish. The “Length of neurites (mean ± S.D.)” value is reported as 66.09 ± 36.49 μm/cell in assay [1] (setting [5]) and 69.33 ± 40.68 μm/cell in assay [1] (setting [7]). Besides, the “Average of the proportions” value in assay [2] (setting [8]) came to 27.73%; in assay [2] (setting [9]), 25.05%. For the same molecule, the “Number of rotational movements” value is given as 12.27 ± 2.48 in assay [3] (setting [10]); 4.9 ± 2.38 in assay [3] (setting [11]); 8.57 ± 2.36 in assay [3] (setting [12]); 2.03 ± 1.56 in assay [3] (setting [13]); 11.06 ± 4.5 in assay [3] (setting [14]); 1.94 ± 2.0 in assay [3] (setting [15]). Also, the “Number of rotational movements” value is on record as 10.94 ± 6.4 in assay [3] (setting [16]) and 1.53 ± 2.1 in assay [3] (setting [17]).
